Laboratory results taken from paper PMC8843100, “Development of newly synthesised quinazolinone-based CDK2 inhibitors with potent efficacy against melanoma” (Journal of Enzyme Inhibition and Medicinal Chemistry, 2022).

What was measured:
Experiment in all cases: NCI-60 single dose screen, sulforhodamine B
Format in all cases: cell-based, human
[1] = test system: NCI-H23; conditions: Non-small cell lung cancer NCI-H23; single dose 10^−5 M
Description: (§1) In this research, all of the newly synthesised quinazolinones were subjected to in vitro anticancer screening by the National Cancer Institute (USA) against 60 different human cell lines including leukaemia, non-small cell lung cancer, colon cancer, CNS cancer, melanoma, ovarian cancer, renal cancer, prostate cancer, and breast cancer. The tested compounds were evaluated at a single dose (10^−5 M). […] Regarding the benzenesulfonamide counterparts, the introduction of an electron-withdrawing group on the benzenesulfonamide moiety increased the inhibitory activity on the glioblastoma cell line SNB-75 as depicted by the chloro derivative 5c (GI% = 63.09) which was higher than that of the unsubstituted derivative 5a (GI% = 40.06) and the methyl derivative 5b (GI% = 33.03).
(§2) 1. Cytotoxicity screening against a panel of 60 human tumor cell lines
(§3) All the compounds were selected for NCI-60 Human Tumor Cell Lines Screen by the Developmental Therapeutics Program (DTP) at the National Cancer Institute (NCI), Maryland, USA. The operation of this screen utilizes 60 different human tumor cell lines, representing leukemia, non-small-cell lung cancer, colon cancer, CNS cancer, melanoma, ovarian cancer, renal cancer, prostate cancer and breas t cancer.
(§4) The compounds were supplied as dry powder and a single concentration is tested in all 60 cell lines at a single dose of 10 µM solution in dimethyl sulfoxide (DMSO) using Sulforhodamine B assay. Briefly, cells are seeded in 96 well plates at an appropriate density and incubated for 1 day. After 1 day, some of the plates are processed to determine the density time zero. To the remaining plates, compounds are added at 10 µM concentration. Plates are incubated a further 2 days, then fixed and staine d with sulphorhodamine B. Growth inhibition is calculated relative to cells without drug treatment and the time zero control. The use of a time zero control allows the determination of cell kill as well as net growth inhibition. […]

[2] = test system: SR; conditions: Leukaemia SR; single dose 10^−5 M
Description: as §1, §2, §3, §4

[3] = test system: DU-145; conditions: Prostate cancer DU-145; single dose 10^−5 M
Description: as §1, §2, §3, §4

[4] = test system: K-562; conditions: Leukaemia K-562; single dose 10^−5 M
Description: as §1, §2, §3, §4

[5] = test system: SN12C; conditions: Renal cancer SN12C; single dose 10^−5 M
Description: as §1, §2, §3, §4

[6] = test system: SNB-75; conditions: CNS cancer SNB-75; single dose 10^−5 M
Description: as §1, §2, §3, §4

[7] = test system: ACHN; conditions: Renal cancer ACHN; single dose 10^−5 M
Description: as §1, §2, §3, §4

[8] = test system: OVCAR-5; conditions: Ovarian cancer OVCAR-5; single dose 10^−5 M
Description: as §1, §2, §3, §4

[9] = test system: HCT-15; conditions: Colon cancer HCT-15; single dose 10^−5 M
Description: as §1, §2, §3, §4

[10] = test system: NCI-H522; conditions: Non-small cell lung cancer NCI-H522; single dose 10^−5 M
Description: as §1, §2, §3, §4

[11] = test system: A549/ATCC; conditions: Non-small cell lung cancer A549/ATCC; single dose 10^−5 M
Description: as §1, §2, §3, §4

[12] = test system: LOX IMVI; conditions: Melanoma LOX IMVI; single dose 10^−5 M
Description: as §1, §2, §3, §4

[13] = test system: U251; conditions: CNS cancer U251; single dose 10^−5 M
Description: as §1, §2, §3, §4

[14] = test system: M14; conditions: Melanoma M14; single dose 10^−5 M
Description: as §1, §2, §3, §4

[15] = test system: PC-3; conditions: Prostate cancer PC-3; single dose 10^−5 M
Description: as §1, §2, §3, §4

[16] = test system: MOLT-4; conditions: Leukaemia MOLT-4; single dose 10^−5 M
Description: as §1, §2, §3, §4

[17] = test system: HCT-116; conditions: Colon cancer HCT-116; single dose 10^−5 M
Description: as §1, §2, §3, §4

[18] = test system: TK-10; conditions: Renal cancer TK-10; single dose 10^−5 M
Description: as §1, §2, §3, §4

[19] = test system: HT29; conditions: Colon cancer HT29; single dose 10^−5 M
Description: as §1, §2, §3, §4

[20] = test system: SF-295; conditions: CNS cancer SF-295; single dose 10^−5 M
Description: as §1, §2, §3, §4

[21] = test system: NCI-H226; conditions: Non-small cell lung cancer NCI-H226; single dose 10^−5 M
Description: as §1, §2, §3, §4

[22] = test system: SW-620; conditions: Colon cancer SW-620; single dose 10^−5 M
Description: as §1, §2, §3, §4

[23] = test system: T-47D; conditions: Breast cancer T-47D; single dose 10^−5 M
Description: as §1, §2, §3, §4

[24] = test system: RPMI-8226; conditions: Leukaemia RPMI-8226; single dose 10^−5 M
Description: as §1, §2, §3, §4

[25] = test system: MDA-MB-231/ATCC; conditions: Breast cancer MDA-MB-231/ATCC; single dose 10^−5 M
Description: as §1, §2, §3, §4

[26] = test system: SK-MEL-28; conditions: Melanoma SK-MEL-28; single dose 10^−5 M
Description: as §1, §2, §3, §4

[27] = test system: MDA-MB-435; conditions: Melanoma MDA-MB-435; single dose 10^−5 M
Description: as §1, §2, §3, §4

[28] = test system: HCC-2998; conditions: Colon cancer HCC-2998; single dose 10^−5 M
Description: as §1, §2, §3, §4

[29] = test system: OVCAR-8; conditions: Ovarian cancer OVCAR-8; single dose 10^−5 M
Description: as §1, §2, §3, §4

[30] = test system: NCI-H322M; conditions: Non-small cell lung cancer NCI-H322M; single dose 10^−5 M
Description: as §1, §2, §3, §4

[31] = test system: SNB-19; conditions: CNS cancer SNB-19; single dose 10^−5 M
Description: as §1, §2, §3, §4

[32] = test system: KM12; conditions: Colon cancer KM12; single dose 10^−5 M
Description: as §1, §2, §3, §4

O=C(CNn1c(COc2ccccc2)nc2ccccc2c1=O)Nc1ccccc1 [Compound 4a, 2-((4-oxo-2-(phenoxymethyl)quinazolin-3(4H)-yl)amino)-N-phenylacetamide]
GI% at 10^−5 M [1]: 16.55%
GI% at 10^−5 M [2]: – (– means GI < 10%)
GI% at 10^−5 M [3]: – (– means GI < 10%)
GI% at 10^−5 M [4]: – (– means GI < 10%)
GI% at 10^−5 M [5]: 13.08%
GI% at 10^−5 M [6]: 62.34%
GI% at 10^−5 M [7]: – (– means GI < 10%)
GI% at 10^−5 M [8]: – (– means GI < 10%)
GI% at 10^−5 M [9]: – (– means GI < 10%)
GI% at 10^−5 M [10]: 13.74%
GI% at 10^−5 M [11]: – (– means GI < 10%)
GI% at 10^−5 M [12]: – (– means GI < 10%)
GI% at 10^−5 M [13]: – (– means GI < 10%)
GI% at 10^−5 M [14]: – (– means GI < 10%)
GI% at 10^−5 M [15]: 10.95%
GI% at 10^−5 M [16]: – (– means GI < 10%)
GI% at 10^−5 M [17]: – (– means GI < 10%)
GI% at 10^−5 M [18]: – (– means GI < 10%)
GI% at 10^−5 M [19]: – (– means GI < 10%)
GI% at 10^−5 M [20]: – (– means GI < 10%)
GI% at 10^−5 M [21]: – (– means GI < 10%)
GI% at 10^−5 M [22]: – (– means GI < 10%)
GI% at 10^−5 M [23]: – (– means GI < 10%)
GI% at 10^−5 M [24]: – (– means GI < 10%)
GI% at 10^−5 M [25]: 18.56%
GI% at 10^−5 M [26]: – (– means GI < 10%)
GI% at 10^−5 M [27]: – (– means GI < 10%)
GI% at 10^−5 M [28]: – (– means GI < 10%)
GI% at 10^−5 M [29]: – (– means GI < 10%)
GI% at 10^−5 M [30]: – (– means GI < 10%)
GI% at 10^−5 M [31]: – (– means GI < 10%)
GI% at 10^−5 M [32]: – (– means GI < 10%)

COc1ccc(NC(=O)CNn2c(COc3ccccc3)nc3ccccc3c2=O)cc1 [Compound 4b, N-(4-methoxyphenyl)-2-((4-oxo-2-(phenoxymethyl)quinazolin-3(4H)-yl)amino)acetamide]
GI% at 10^−5 M [1]: – (– means GI < 10%)
GI% at 10^−5 M [2]: – (– means GI < 10%)
GI% at 10^−5 M [3]: – (– means GI < 10%)
GI% at 10^−5 M [4]: – (– means GI < 10%)
GI% at 10^−5 M [5]: 12.37%
GI% at 10^−5 M [6]: 21.9%
GI% at 10^−5 M [7]: – (– means GI < 10%)
GI% at 10^−5 M [8]: – (– means GI < 10%)
GI% at 10^−5 M [9]: – (– means GI < 10%)
GI% at 10^−5 M [10]: 12.54%
GI% at 10^−5 M [11]: – (– means GI < 10%)
GI% at 10^−5 M [12]: – (– means GI < 10%)
GI% at 10^−5 M [13]: – (– means GI < 10%)
GI% at 10^−5 M [14]: – (– means GI < 10%)
GI% at 10^−5 M [15]: 9.76%
GI% at 10^−5 M [16]: – (– means GI < 10%)
GI% at 10^−5 M [17]: – (– means GI < 10%)
GI% at 10^−5 M [18]: – (– means GI < 10%)
GI% at 10^−5 M [19]: – (– means GI < 10%)
GI% at 10^−5 M [20]: – (– means GI < 10%)
GI% at 10^−5 M [21]: – (– means GI < 10%)
GI% at 10^−5 M [22]: – (– means GI < 10%)
GI% at 10^−5 M [23]: – (– means GI < 10%)
GI% at 10^−5 M [24]: – (– means GI < 10%)
GI% at 10^−5 M [25]: 11.38%
GI% at 10^−5 M [26]: – (– means GI < 10%)
GI% at 10^−5 M [27]: – (– means GI < 10%)
GI% at 10^−5 M [28]: – (– means GI < 10%)
GI% at 10^−5 M [29]: – (– means GI < 10%)
GI% at 10^−5 M [30]: – (– means GI < 10%)
GI% at 10^−5 M [31]: – (– means GI < 10%)
GI% at 10^−5 M [32]: – (– means GI < 10%)

O=C(CNn1c(COc2ccccc2)nc2ccccc2c1=O)Nc1ccc(Cl)cc1 [Compound 4c, N-(4-chlorophenyl)-2-((4-oxo-2-(phenoxymethyl)quinazolin-3(4H)-yl)amino)acetamide]
GI% at 10^−5 M [1]: – (– means GI < 10%)
GI% at 10^−5 M [2]: 10.05%
GI% at 10^−5 M [3]: – (– means GI < 10%)
GI% at 10^−5 M [4]: 10.43%
GI% at 10^−5 M [5]: 19.15%
GI% at 10^−5 M [6]: – (– means GI < 10%)
GI% at 10^−5 M [7]: – (– means GI < 10%)
GI% at 10^−5 M [8]: – (– means GI < 10%)
GI% at 10^−5 M [9]: – (– means GI < 10%)
GI% at 10^−5 M [10]: 24.21%
GI% at 10^−5 M [11]: – (– means GI < 10%)
GI% at 10^−5 M [12]: – (– means GI < 10%)
GI% at 10^−5 M [13]: – (– means GI < 10%)
GI% at 10^−5 M [14]: – (– means GI < 10%)
GI% at 10^−5 M [15]: 15.9%
GI% at 10^−5 M [16]: 15.9%
GI% at 10^−5 M [17]: – (– means GI < 10%)
GI% at 10^−5 M [18]: – (– means GI < 10%)
GI% at 10^−5 M [19]: – (– means GI < 10%)
GI% at 10^−5 M [20]: – (– means GI < 10%)
GI% at 10^−5 M [21]: 11.13%
GI% at 10^−5 M [22]: – (– means GI < 10%)
GI% at 10^−5 M [23]: 29.33%
GI% at 10^−5 M [24]: – (– means GI < 10%)
GI% at 10^−5 M [25]: – (– means GI < 10%)
GI% at 10^−5 M [26]: – (– means GI < 10%)
GI% at 10^−5 M [27]: – (– means GI < 10%)
GI% at 10^−5 M [28]: – (– means GI < 10%)
GI% at 10^−5 M [29]: – (– means GI < 10%)
GI% at 10^−5 M [30]: – (– means GI < 10%)
GI% at 10^−5 M [31]: – (– means GI < 10%)
GI% at 10^−5 M [32]: – (– means GI < 10%)
